Read-outs that look alike come from different tables or passages of the source.
Key:
[1] = system: LLC-PK1 or MDCKII cell monolayer
Procedure: (§4) MDR1 LLC-PK1 and BCRP MDCKII Permeability Assay
(§5) Both LLC-PK1 and MDR1 transfected LLC-PK1 cells were cultured and plated according to manufacturer's recommendations with the exception that the passage media contained only 2% fetal bovine serum to extend passage time out to seven days.
(§6) BCRP transfected MDCKII cells were cultured and plated according to manufacturer's recommendations. Assay conditions included with and without the BCRP-specific inhibitor, KO0143, at a concentration of 0.3 μM to ascertain the contribution of BCRP to the efflux value of the test compound.
(§7) Both positive and negative controls were used to assess functionality of P-gp or BCRP efflux in the assays. […] Final organic concentration in the assay was 1%. All dosing solutions contained 10 μM lucifer yellow to monitor LLC-PK1 or MDCKII cell monolayer integrity.
(§8) For the apical to basolateral determination (A to B), 75 μL of the test article in transport buffer were added to the apical side of the individual transwells and 250 μL of basolateral media, without compound or lucifer yellow, were added to each well. For the basolateral to apical determination (B to A), 250 μL of test article in transport buffer were added to each well and 75 μL transport buffer, without compound or lucifer yellow, were added to each transwell. All tests were performed in triplicate, and each compound was tested for both apical to basolateral and basolateral to apical transport. The plates were incubated for 2 hours on a Lab-Line Instruments Titer Orbital Shaker (VWR, West Chester, Pa.) at 50 rpm and 37° C. with 5% CO2. All culture plates were removed from the incubator and 50 μL of media were removed from the apical and basolateral portion of each well and added to 150 μL of 1 μM labetalol in 2:1 acetonitrile (acetonitrile): H2O, v/v.
(§9) These values were accepted when found to be below 2% for apical to basolateral and 5% basolateral to apical flux across the MDR1-transfected LLC-PK1 or BCRP-transfected MDCKII cell monolayers. The plates were sealed and the contents of each well analyzed by LC-MS/MS. The compound concentrations were determined from the ratio of the peak areas of the compound to the internal standard (labetalol) in comparison to the dosing solution.
(§10) The LC-MS/MS system was comprised of an HTS-PAL autosampler (Leap Technologies, Carrboro, N.C.), an HP1200 HPLC (Agilent, Palo Alto, Calif.), and a MDS Sciex 4000 Q Trap system (Applied Biosystems, Foster City, Calif.). […] The total run time, including re-equilibration, for a single injection was 1.2 minutes. Mass spectrometric detection of the analytes was accomplished using the ion spray positive mode.
(§11) where Cd, V, t and C0 are the detected concentration (μM), the volume on the dosing side (mL), the incubation time (s) and the initial dosing concentration (μM), respectively. The calculations for Papp were made for each replicate and then averaged.

[2] = biological target: full-length FLAG-tagged B-Raf(V600E) (Homo sapiens (Human), UniProt P15056, V600E); experiment: BRAF V600E enzyme assay (TR-FRET competitive displacement); format: binding; details: averaged IC50; 60 min, ambient temperature
Source text: (§1) A competitive displacement assay was configured for B-Raf that monitors the amount of a fluorescently-tagged “tracer” bound to B-Raf via TR-FRET from an anti-tag Eu-labeled antibody also bound to B-Raf.
(§2) [formula] • where: • Xmax Average Uninhibited Controls • Xm Average Background
(§3) A 4-parameter logistic model was the fit to the POC data for each compound.

P-gp (MDR1) [3] = biological target: T1, P-gp (MDR1) (Homo sapiens (Human), UniProt P08183); experiment: MDR1 efflux ratio in MDR1 transfected LLC-PK1 cells; details: for MDR1 efflux ratio: Papp(B−A)/Papp(A−B), MDR1 transfected LLC-PK1 cells, 1 μM; for efflux ratio at 2 h, 1 μM: pig, LLC-PK1
Procedure: as §5, §7, §8, §9, §10
(§12) An efflux ratio is calculated from the mean apical to basolateral (A-B) Papp data and basolateral to apical (B-A) Papp data: Efflux ratio=Papp(B−A)/Papp(A−B)

BCRP [4] = biological target: T2, BCRP (Homo sapiens (Human), UniProt Q9UNQ0); experiment: BCRP efflux ratio in BCRP transfected MDCKII cells; details: for BCRP efflux ratio: Papp(B−A)/Papp(A−B), BCRP transfected MDCKII cells, 1 μM; for efflux ratio at 2 h, 1 μM: dog
Procedure: as §4, §6, §7, §8, §9, §10, §12

[5] = system: LLC-PK1 or MDCKII cell monolayer; experiment: MDR1 LLC-PK1 and BCRP MDCKII permeability assay (Papp); details: Papp; test article 1 μM, 2 hours, 37° C.
Procedure: as §4, §5, §6, §7, §8, §9, §10, §11

P-gp (MDR1) [6] = biological target: T1, P-gp (MDR1); details: pig, LLC-PK1, 2 h, 1 μM
Procedure: as §5, §7, §8, §9, §10, §12

BCRP [7] = biological target: T2, BCRP; details: dog, 2 h, 1 μM
Procedure: as §4, §6, §7, §8, §9, §10, §12

[8] = PK (free brain-to-free plasma ratio) (mouse); format: in vivo; details: male CD-1 mice, oral gavage 10 mg/kg, (B/P)*(Bfu/Pfu)
Procedure: PK (Free Brain-to-Free Plasma Ratio) (Mouse)
The ability of representative compounds to penetrate the BBB in mice was determined by evaluating the unbound brain-to-unbound plasma (also referred to as free brain-to-free plasma) concentration ratio in male CD-1 mice.
Brain samples were stored at −20±5° C. prior to analysis. Concentrations of test compound in mouse brain homogenate were determined by liquid chromatography tandem mass spectrometry (LC-MS/MS) following protein precipitation with acetonitrile. A 12-point calibration curve, ranging from 0.5 to 10,000 ng/mL, was prepared in duplicate. A solution of 400 μg/mL of test compound in dimethyl sulfoxide (DMSO) was serially diluted (3-fold) in 100% DMSO, and then 2.5 μL of each standard solution was added to 100 μL of naïve male CD-1 mice brain homogenate. To mimic the extraction in the standard curve, 2.5 μL of DMSO was added to all test samples. […]
Brain-to-plasma ratios were calculated using the concentration of compound measured in the brain divided by the concentration of compound measured in the plasma. […] Free brain-to-free plasma ratios were calculated by multiplying the brain-to-plasma ratio by the in vitro brain homogenate free fraction divided by the in vitro plasma free fraction using the following equation: (B/P)*(Bfu/Pfu).

GST-tagged B-Raf(V600K) = GST-tagged B-Raf(V600K) (Homo sapiens, UniProt P15056, V600K); experiment: BRAF V600K enzyme assay (TR-FRET competitive displacement); format: binding; details: averaged IC50; 60 min, ambient temperature
Source text: as §1, §2, §3

[9] = MDR1 LLC-PK1 and BCRP MDCKII permeability assay (Papp)
Procedure: as §4, §5, §6, §7, §8, §9, §10, §11

[10] = system: A375-luciferase intracranial tumor xenografts; experiment: Intracranial A375-luciferase efficacy and survival mouse tumor model; format: in vivo, Female nu/nu NCr mice; details: BID PO 60 consecutive days, FIG. 15
Procedure: Female nu/nu NCr mice from Envigo (Indianapolis, Ind.) were obtained at 5-6 weeks of age and housed in groups of 5. Following a one week minimum acclimation period, mice received orthotopic (i.c.) intracranial injections of 3.0×10^3 A375-luciferase tumor cells suspended in a volume of 10 μL 0.9% sterile Dulbecco's phosphate buffered saline (DPBS) using the top-down approach (Laursen and Belknap, 1986). Seven days post cell implant (Day 1), animals were randomized and sorted into five groups (n=10/group).
Test compounds were given at a dose volume of 10 mL/kg, and vehicles were matched for each group to control for dosing stress, i.e. all groups received twice daily (BID) dose administration by oral gavage (PO) at the relevant dose volumes and schedule shown in Table 9. Tumor growth was monitored by measuring luciferase activity twice per week. Total flux/mouse can vary by an order of magnitude on day 1 of study start (start of dosing). The total flux was normalized per mouse by assigning the first measurement of flux on day 2 as 100%. Body weight loss as an indicator of tumor progression was determined daily during the dosing interval and then as needed (at least once weekly). Survival was evaluated through day 90 (30 days post-dosing cessation).

BCRP [11] = details: reported by Mittapalli et al.; cited from earlier work

T2 sequence (Q9UNQ0 whole entry, species assumed): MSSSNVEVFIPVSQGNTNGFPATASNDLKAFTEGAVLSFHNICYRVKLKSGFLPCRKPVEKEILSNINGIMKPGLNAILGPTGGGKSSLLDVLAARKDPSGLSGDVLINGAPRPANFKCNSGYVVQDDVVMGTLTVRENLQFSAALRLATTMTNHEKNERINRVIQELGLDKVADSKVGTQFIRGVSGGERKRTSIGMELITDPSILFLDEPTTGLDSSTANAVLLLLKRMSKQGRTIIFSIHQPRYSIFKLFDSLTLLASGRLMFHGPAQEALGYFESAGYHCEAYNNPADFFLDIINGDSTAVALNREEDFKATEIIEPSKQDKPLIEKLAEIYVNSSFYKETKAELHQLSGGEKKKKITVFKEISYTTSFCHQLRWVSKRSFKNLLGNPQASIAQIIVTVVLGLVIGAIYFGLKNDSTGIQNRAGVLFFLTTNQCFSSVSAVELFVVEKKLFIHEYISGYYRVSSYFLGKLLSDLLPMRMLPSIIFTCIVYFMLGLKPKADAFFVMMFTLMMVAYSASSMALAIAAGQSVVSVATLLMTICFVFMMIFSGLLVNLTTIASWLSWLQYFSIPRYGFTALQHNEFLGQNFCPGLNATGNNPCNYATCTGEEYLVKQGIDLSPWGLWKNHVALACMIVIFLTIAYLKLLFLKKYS
Chain of full-length FLAG-tagged B-Raf(V600E) (P15056 whole entry V600E): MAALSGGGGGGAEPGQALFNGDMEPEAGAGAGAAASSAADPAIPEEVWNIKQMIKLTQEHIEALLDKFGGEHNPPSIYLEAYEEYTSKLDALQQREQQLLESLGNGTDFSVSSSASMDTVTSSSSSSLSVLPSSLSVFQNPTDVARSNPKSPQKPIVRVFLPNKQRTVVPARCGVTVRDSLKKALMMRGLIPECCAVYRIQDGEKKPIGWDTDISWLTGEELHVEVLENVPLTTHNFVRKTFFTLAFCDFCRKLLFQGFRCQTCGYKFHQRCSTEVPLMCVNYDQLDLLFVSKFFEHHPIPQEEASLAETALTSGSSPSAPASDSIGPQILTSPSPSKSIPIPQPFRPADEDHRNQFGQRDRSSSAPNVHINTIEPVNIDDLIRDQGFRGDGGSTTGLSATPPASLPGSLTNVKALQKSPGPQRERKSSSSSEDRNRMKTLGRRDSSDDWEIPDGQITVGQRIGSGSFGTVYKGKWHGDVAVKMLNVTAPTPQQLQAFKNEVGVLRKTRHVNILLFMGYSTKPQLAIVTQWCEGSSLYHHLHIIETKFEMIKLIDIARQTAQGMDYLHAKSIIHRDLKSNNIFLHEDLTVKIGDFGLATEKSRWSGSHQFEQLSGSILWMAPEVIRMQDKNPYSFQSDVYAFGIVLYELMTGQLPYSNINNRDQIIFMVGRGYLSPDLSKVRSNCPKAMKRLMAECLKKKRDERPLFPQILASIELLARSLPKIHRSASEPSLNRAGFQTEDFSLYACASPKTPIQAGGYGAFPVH
T1 sequence (P08183 whole entry, species assumed): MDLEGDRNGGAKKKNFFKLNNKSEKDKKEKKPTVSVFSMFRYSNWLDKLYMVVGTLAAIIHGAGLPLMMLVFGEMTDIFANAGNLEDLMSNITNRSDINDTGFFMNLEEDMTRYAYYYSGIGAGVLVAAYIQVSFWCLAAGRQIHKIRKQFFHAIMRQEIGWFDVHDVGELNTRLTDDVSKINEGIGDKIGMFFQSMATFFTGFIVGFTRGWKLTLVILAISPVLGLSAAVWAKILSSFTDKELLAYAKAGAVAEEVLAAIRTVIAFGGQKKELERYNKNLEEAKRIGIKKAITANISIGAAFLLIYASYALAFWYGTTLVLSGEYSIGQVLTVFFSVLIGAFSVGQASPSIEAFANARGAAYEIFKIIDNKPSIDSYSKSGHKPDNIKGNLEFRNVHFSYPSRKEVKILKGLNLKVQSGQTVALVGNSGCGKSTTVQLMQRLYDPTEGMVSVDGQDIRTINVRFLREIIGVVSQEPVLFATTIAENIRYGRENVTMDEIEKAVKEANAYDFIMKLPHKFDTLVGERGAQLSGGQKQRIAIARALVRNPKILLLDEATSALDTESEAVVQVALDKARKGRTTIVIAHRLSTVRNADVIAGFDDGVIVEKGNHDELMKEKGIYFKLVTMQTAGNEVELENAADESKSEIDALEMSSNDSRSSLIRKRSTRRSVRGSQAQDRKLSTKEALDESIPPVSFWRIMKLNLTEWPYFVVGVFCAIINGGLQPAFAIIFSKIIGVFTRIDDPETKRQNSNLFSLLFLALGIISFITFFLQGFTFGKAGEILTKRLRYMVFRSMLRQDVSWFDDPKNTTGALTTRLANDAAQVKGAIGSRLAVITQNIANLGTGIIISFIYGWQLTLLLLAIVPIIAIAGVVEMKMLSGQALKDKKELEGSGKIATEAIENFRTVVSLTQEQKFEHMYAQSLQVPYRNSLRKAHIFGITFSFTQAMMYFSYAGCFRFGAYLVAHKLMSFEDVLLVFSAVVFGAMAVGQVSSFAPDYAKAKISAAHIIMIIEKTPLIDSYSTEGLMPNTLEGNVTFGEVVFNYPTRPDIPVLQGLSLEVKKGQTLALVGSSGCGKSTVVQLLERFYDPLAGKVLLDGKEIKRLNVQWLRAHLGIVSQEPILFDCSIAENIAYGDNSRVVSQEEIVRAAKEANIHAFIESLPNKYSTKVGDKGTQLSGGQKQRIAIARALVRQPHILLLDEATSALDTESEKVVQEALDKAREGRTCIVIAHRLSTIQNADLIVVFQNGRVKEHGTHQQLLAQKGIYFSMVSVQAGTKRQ
Chain of GST-tagged B-Raf(V600K) (P15056 2-766 V600K limits assumed): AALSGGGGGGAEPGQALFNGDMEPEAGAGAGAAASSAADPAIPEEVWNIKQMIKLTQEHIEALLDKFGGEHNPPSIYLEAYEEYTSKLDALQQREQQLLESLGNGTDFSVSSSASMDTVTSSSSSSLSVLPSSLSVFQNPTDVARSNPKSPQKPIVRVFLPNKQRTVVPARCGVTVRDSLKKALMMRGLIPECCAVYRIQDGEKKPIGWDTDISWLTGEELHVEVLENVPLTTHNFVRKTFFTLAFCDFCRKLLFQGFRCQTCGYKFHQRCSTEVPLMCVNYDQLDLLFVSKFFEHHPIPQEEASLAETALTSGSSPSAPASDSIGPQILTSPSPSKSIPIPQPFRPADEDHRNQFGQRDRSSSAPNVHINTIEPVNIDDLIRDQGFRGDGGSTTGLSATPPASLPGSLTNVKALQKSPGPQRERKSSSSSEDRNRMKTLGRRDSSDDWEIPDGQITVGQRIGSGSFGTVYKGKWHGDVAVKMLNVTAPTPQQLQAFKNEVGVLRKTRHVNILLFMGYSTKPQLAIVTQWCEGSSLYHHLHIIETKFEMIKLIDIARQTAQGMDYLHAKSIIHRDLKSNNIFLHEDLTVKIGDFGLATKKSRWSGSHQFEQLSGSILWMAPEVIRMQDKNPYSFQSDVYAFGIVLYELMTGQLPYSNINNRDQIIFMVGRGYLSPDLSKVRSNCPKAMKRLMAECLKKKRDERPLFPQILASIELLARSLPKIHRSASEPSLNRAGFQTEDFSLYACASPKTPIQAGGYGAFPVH

Compound	IC50 [2]	MDR1 efflux ratio (P-gp (MDR1) [3])	BCRP efflux ratio (BCRP [4])	Permeability (*10^−6 cm/s) [5]	further results
CCCS(=O)(=O)Nc1cc(Cl)cc(Nc2ccc3ncn(C)c(=O)c3c2C)c1Cl [Example 48, N-(2,5-dichloro-3-((3,5-dimethyl-4-oxo-3,4-dihydroquinazoli-6-yl)amino)phenyl) propane-1-sulfonamide]					Permeability (*10^−6 cm/s) [1]: 25.83 *10^−6 cm/s
N-(4-((3,5-dimethyl-4- oxo-3,4- dihydroquinazolin-6- yl)amino)-3,5- difluoropyridin-2- yl)ethanesulfonamide [Example 43]	0.26 µM	5.24	26.02	8.75 *10^−6 cm/s	
N-(2-chloro-3-((3,5- dimethyl-4-oxo-3,4- dihydroquinazolin-6- yl)amino)-4- fluorophenyl) ethanesulfonamide [Example 52]	0.226 µM	1.76	1.28	28.91 *10^−6 cm/s	
N-(2-chloro-3-((3,5- dimethyl-4-oxo-3,4- dihydroquinazolin-6- yl)amino)-4- fluorophenyl)-2- methylpropane-1- sulfonamide [Example 51]	0.0634 µM	1.64	1.28	27.16 *10^−6 cm/s	
N-(2-cyano-3-((3,5- dimethyl-4-oxo-3,4- dihydroquinazolin-6- yl)amino)phenyl) propane-1-sulfonamide [Example 53]	0.0094 µM				MDR1 efflux ratio (P-gp (MDR1) [6]): 2.6; BCRP efflux ratio (BCRP [7]): 22.97; Permeability (*10^−6 cm/s) ([1]; 2 h, 1 μM): 27.13 *10^−6 cm/s
N-(3-chloro-4-((3,5- dimethyl-4-oxo-3,4- dihydroquinazolin-6- yl)amino)-5- fluoropyridin-2-yl)-1- cyclopropyl- methanesulfonamide [Example 47]	0.0417 µM	1.84	7.93	25.7 *10^−6 cm/s	
Cc1c(Nc2c(F)cnc(NS(=O)(=O)CC3CC3)c2F)ccc2ncn(C)c(=O)c12 [Example 42, 1-cyclopropyl-N-(4-((3,5-dimethyl-4-oxo-3,4-dihydroquinazolin-6-yl)amino)-3,5-difluoropyridin-2-yl) methanesulfonamide]	0.0603 µM	5.26	23.73	18.35 *10^−6 cm/s	
N-(2-chloro-3-((3,5- dimethyl-4-oxo-3,4- dihydroquinazolin-6- yl)amino)-4- fluorophenyl)-1- cyclopropyl- methanesulfonamide [Example 50]	0.0661 µM	1.54	1.13	21.88 *10^−6 cm/s	
CCCS(=O)(=O)Nc1ccc(F)c(Oc2ccc3ncn(C)c(=O)c3c2C)c1Cl [Example 55, N-{2-chloro-3-[(3,5-dimethyl-4-oxo-3,4-dihydroquinazolin-6-yl)oxy]-4-fluorophenyl}propane-1-sulfonamide]	0.0054 µM				Kp,uu (unbound brain-to-unbound plasma ratio) [8]: 0.46 to 0.51; efflux ratio at 2 h, 1 μM (P-gp (MDR1) [3]): 1.1; efflux ratio at 2 h, 1 μM (BCRP [4]): 0.83; IC50 (GST-tagged B-Raf(V600K)): 0.0031 µM; Papp at 2 h, 1 μM [9]: 23.8 ×10⁻⁶ cm/s
Cc1c(Nc2c(F)ccc(NS(=O)(=O)CCCF)c2Cl)ccc2ncn(C)c(=O)c12 [Example 82, N-(2-chloro-3-((3,5-dimethyl-4-oxo-3,4-dihydroquinazolin-6-yl)amino)-4-fluorophenyl)-3-fluoropropane-1-sulfonamide]					Tumor growth (total bioluminescence, luciferase activity) [10]: significant effect on tumor growth
N-(3-chloro-4-((3,5- dimethyl-4-oxo-3,4- dihydroquinazolin-6- yl)amino)-5- fluoropyridin-2- yl)ethanesulfonamide [Example 45]	0.137 µM	2.47	11.29	16.56 *10^−6 cm/s	
CCCS(=O)(=O)Nc1ncc(F)c(Oc2ccc3ncn(C)c(=O)c3c2C)c1Cl [Example 63, N-(3-chloro-4-((3,5-dimethyl-4-oxo-3,4-dihydroquinazolin-6-yl)oxy)-5-fluoropyridin-2-yl)propane-1-sulfonamide]	0.0028 µM				Kp,uu (unbound brain-to-unbound plasma ratio) [8]: 0.34 to 0.4; efflux ratio at 2 h, 1 μM (P-gp (MDR1) [3]): 1.3; efflux ratio at 2 h, 1 μM (BCRP [4]): 7.7; IC50 (GST-tagged B-Raf(V600K)): 0.0024 µM; Papp at 2 h, 1 μM [9]: 26.1 ×10⁻⁶ cm/s
N-(2-chloro-3-((3,5- dimethyl-4-oxo-3,4- dihydroquinazolin-6- yl)amino)-5- fluorophenyl)-3- fluoropropane-1- sulfonamide [Example 44]	0.00605 µM	1.05	2.84	24.2 *10^−6 cm/s	
N-(3-((3,5-dimethyl-4- oxo-3,4- dihydroquinazolin-6- yl)amino)-2-fluoro-5- methylphenyl)propane- 1-sulfonamide [Example 46]	0.148 µM				MDR1 efflux ratio (P-gp (MDR1) [6]): 1.43; BCRP efflux ratio (BCRP [7]): 1.48; Permeability (*10^−6 cm/s) ([1]; 2 h, 1 μM): 30.74 *10^−6 cm/s
CC(C)(C)c1nc(-c2cccc(NS(=O)(=O)c3c(F)cccc3F)c2F)c(-c2ccnc(N)n2)s1 [dabrafenib]					BCRP efflux ratio (BCRP [11]): 21.0
CCN(C)S(=O)(=O)Nc1ccc(F)c(Nc2ccc3ncn(C)c(=O)c3c2C)c1Cl [Example 54, N-(2-chloro-3-((3,5-dimethyl-4-oxo-3,4-dihydroquinazolin-6-yl)amino)-4-fluorophenyl)-N-ethyl-N-methylamino-1-sulfonamide]					Permeability (*10^−6 cm/s) [1]: 35.81 *10^−6 cm/s
N-(2-chloro-3-((3,5- dimethyl-4-oxo-3,4- dihydroquinazolin-6- yl)amino)-4- fluorophenyl) benzenesulfonamide [Example 49]	0.00395 µM	1.24	0.97	30.68 *10^−6 cm/s	
